Test results as given in the NIST ThermoML archive (doi:10.1021/je500381c).

Assays:
[1] = for viscosity / mass density: 100 kPa, Liquid; for mass density: Vibrating tube method; for surface tension liquid-gas: Drop volume
[2] = refractive index (Na D-line) (dimensionless); details: 101.33 kPa, Liquid, Standard Abbe refractometry
[3] = xn = mol fraction of the nth substance listed; details: for mass density / viscosity: 100 kPa, Liquid; for mass density: Vibrating tube method; for surface tension liquid-gas: Drop volume
[4] = refractive index (Na D-line) (dimensionless); xn = mol fraction of the nth substance listed; details: 100 kPa, Liquid, Standard Abbe refractometry

CCCCCCCO [heptan-1-ol]
Details | mass density, [1] [kg/m3] | refractive index, [2] | surface tension liquid-gas, [1] [mN/m] | viscosity, [1] [mPa·s]
293.15 K | 822.28 | 1.4236 | – | 6.887
298.15 K | 818.79 | 1.422 | 26.23 | 5.812
303.15 K | 815.28 | 1.4203 | – | 4.95
308.15 K | 811.74 | – | – | 4.245
313.15 K | 808.16 | 1.4156 | – | 3.654
318.15 K | 804.56 | – | – | 3.17
323.15 K | 800.92 | 1.4115 | – | 2.768
328.15 K | 797.24 | – | – | 2.428
333.15 K | 793.52 | 1.4077 | – | 2.141

OCC1CCCCC1 [cyclohexylmethanol] + CC12CC3CC(C)(C1)CC(C)(C3)C2
x1 = 1
Details | mass density, [3] [kg/m3] | refractive index, [4] | surface tension liquid-gas, [3] [mN/m] | viscosity, [3] [mPa·s]
293.15 K | 929.76 | 1.4629 | – | 37.75
298.15 K | 926.25 | 1.4612 | 32.43 | 28.67
303.15 K | 922.71 | 1.4592 | – | 22.34
308.15 K | 919.14 | – | – | 17.57
313.15 K | 915.53 | 1.455 | – | 14.09
318.15 K | 911.88 | – | – | 11.43
323.15 K | 908.19 | 1.4507 | – | 9.354
328.15 K | 904.45 | – | – | 7.766
333.15 K | 900.67 | 1.4463 | – | 6.462

OCC1CCCCC1 [cyclohexylmethanol]
Details | mass density, [1] [kg/m3] | refractive index, [2] | surface tension liquid-gas, [1] [mN/m] | viscosity, [1] [mPa·s]
293.15 K | 929.76 | 1.4629 | – | 37.75
298.15 K | 926.25 | 1.4612 | 32.43 | 28.67
303.15 K | 922.71 | 1.4592 | – | 22.34
308.15 K | 919.14 | – | – | 17.57
313.15 K | 915.53 | 1.455 | – | 14.09
318.15 K | 911.88 | – | – | 11.43
323.15 K | 908.19 | 1.4507 | – | 9.354
328.15 K | 904.45 | – | – | 7.766
333.15 K | 900.67 | 1.4463 | – | 6.462

CCCCCCCO [heptan-1-ol] + CC12CC3CC(C1)CC(C)(C3)C2
x1 = 1
Details | mass density, [3] [kg/m3] | refractive index, [4] | surface tension liquid-gas, [3] [mN/m] | viscosity, [3] [mPa·s]
293.15 K | 822.28 | 1.4236 | – | 6.887
298.15 K | 818.79 | 1.422 | 26.23 | 5.812
303.15 K | 815.28 | 1.4203 | – | 4.95
308.15 K | 811.74 | – | – | 4.245
313.15 K | 808.16 | 1.4156 | – | 3.654
318.15 K | 804.56 | – | – | 3.17
323.15 K | 800.92 | 1.4115 | – | 2.768
328.15 K | 797.24 | – | – | 2.428
333.15 K | 793.52 | 1.4077 | – | 2.141

CCCCCCCO [heptan-1-ol] + CCC12CC3CC(CC(C3)C1)C2
x1 = 1
Details | mass density, [3] [kg/m3] | refractive index, [4] | surface tension liquid-gas, [3] [mN/m] | viscosity, [3] [mPa·s]
293.15 K | 822.28 | 1.4236 | – | 6.887
298.15 K | 818.79 | 1.422 | 26.23 | 5.812
303.15 K | 815.28 | 1.4203 | – | 4.95
308.15 K | 811.74 | – | – | 4.245
313.15 K | 808.16 | 1.4156 | – | 3.654
318.15 K | 804.56 | – | – | 3.17
323.15 K | 800.92 | 1.4115 | – | 2.768
328.15 K | 797.24 | – | – | 2.428
333.15 K | 793.52 | 1.4077 | – | 2.141

OCC1CCCCC1 [cyclohexylmethanol] + CCC12CC3CC(CC(C3)C1)C2
x1 = 1
Details | mass density, [3] [kg/m3] | refractive index, [4] | surface tension liquid-gas, [3] [mN/m] | viscosity, [3] [mPa·s]
293.15 K | 929.76 | 1.4629 | – | 37.75
298.15 K | 926.25 | 1.4612 | 32.43 | 28.67
303.15 K | 922.71 | 1.4592 | – | 22.34
308.15 K | 919.14 | – | – | 17.57
313.15 K | 915.53 | 1.455 | – | 14.09
318.15 K | 911.88 | – | – | 11.43
323.15 K | 908.19 | 1.4507 | – | 9.354
328.15 K | 904.45 | – | – | 7.766
333.15 K | 900.67 | 1.4463 | – | 6.462

CC12CC3CC(C1)CC(C)(C3)C2 [1,3-dimethyladamantane]
Details | mass density, [1] [kg/m3] | refractive index, [2] | surface tension liquid-gas, [1] [mN/m] | viscosity, [1] [mPa·s]
293.15 K | 901.58 | 1.4776 | – | 3.764
298.15 K | 898.04 | 1.4757 | 27.88 | 3.345
303.15 K | 894.48 | 1.4734 | – | 3.004
308.15 K | 890.92 | – | – | 2.711
313.15 K | 887.35 | 1.4691 | – | 2.458
318.15 K | 883.77 | – | – | 2.237
323.15 K | 880.19 | 1.4651 | – | 2.045
328.15 K | 876.6 | – | – | 1.876
333.15 K | 873.01 | 1.461 | – | 1.728

CCC12CC3CC(CC(C3)C1)C2 [1-ethyladamantane]
Details | mass density, [1] [kg/m3] | refractive index, [2] | surface tension liquid-gas, [1] [mN/m] | viscosity, [1] [mPa·s]
293.15 K | 937.11 | 1.4927 | – | 6.371
298.15 K | 933.58 | 1.4906 | 29.87 | 5.565
303.15 K | 929.99 | 1.4884 | – | 4.903
308.15 K | 926.4 | – | – | 4.348
313.15 K | 922.81 | 1.4839 | – | 3.878
318.15 K | 919.21 | – | – | 3.478
323.15 K | 915.62 | 1.4802 | – | 3.134
328.15 K | 912.01 | – | – | 2.838
333.15 K | 908.41 | 1.4759 | – | 2.581

CC12CC3CC(C)(C1)CC(C)(C3)C2 [1,3,5-trimethyladamantane]
Details | mass density, [1] [kg/m3] | refractive index, [2] | surface tension liquid-gas, [1] [mN/m] | viscosity, [1] [mPa·s]
293.15 K | 887.48 | 1.4736 | – | 2.601
298.15 K | 883.99 | 1.4715 | 26.17 | 2.338
303.15 K | 880.47 | 1.4695 | – | 2.118
308.15 K | 876.94 | – | – | 1.93
313.15 K | 873.4 | 1.4649 | – | 1.765
318.15 K | 869.86 | – | – | 1.621
323.15 K | 866.31 | 1.4612 | – | 1.494
328.15 K | 862.76 | – | – | 1.384
333.15 K | 859.2 | 1.4568 | – | 1.284

CCCCCCCO [heptan-1-ol] + CC12CC3CC(C)(C1)CC(C)(C3)C2
x1 = 1
Details | mass density, [3] [kg/m3] | refractive index, [4] | surface tension liquid-gas, [3] [mN/m] | viscosity, [3] [mPa·s]
293.15 K | 822.28 | 1.4236 | – | 6.887
298.15 K | 818.79 | 1.422 | 26.23 | 5.812
303.15 K | 815.28 | 1.4203 | – | 4.95
308.15 K | 811.74 | – | – | 4.245
313.15 K | 808.16 | 1.4156 | – | 3.654
318.15 K | 804.56 | – | – | 3.17
323.15 K | 800.92 | 1.4115 | – | 2.768
328.15 K | 797.24 | – | – | 2.428
333.15 K | 793.52 | 1.4077 | – | 2.141

CC12CC3CC(C1)CC(C)(C3)C2 [1,3-dimethyladamantane] + OCC1CCCCC1
x2 = 0
Details | mass density, [3] [kg/m3] | refractive index, [4] | surface tension liquid-gas, [3] [mN/m] | viscosity, [3] [mPa·s]
293.15 K | 901.58 | 1.4776 | – | 3.764
298.15 K | 898.04 | 1.4757 | 27.88 | 3.345
303.15 K | 894.48 | 1.4734 | – | 3.004
308.15 K | 890.92 | – | – | 2.711
313.15 K | 887.35 | 1.4691 | – | 2.458
318.15 K | 883.77 | – | – | 2.237
323.15 K | 880.19 | 1.4651 | – | 2.045
328.15 K | 876.6 | – | – | 1.876
333.15 K | 873.01 | 1.461 | – | 1.728
